In patent US7989483B2, “4-heteroarylimidazole-2-thione tyrosinase inhibitors and pharmaceutical/cosmetic applications thereof” (Galderma Research & Development, priority 2007, dated 2011) one finds IC50 data, which are given here for 2 compounds.

The test has as its target T1, tyrosinase (Mus musculus, UniProt P11344).
T1 construct: the supernatant obtained constitutes the cell lysate used as tyrosinase source in the enzymatic assay; endogenous in cells; host or cells: B16F1 murine melanoma cells (alpha-MSH stimulated), detergent lysate supernatant
T1 sequence (P11344 19-533): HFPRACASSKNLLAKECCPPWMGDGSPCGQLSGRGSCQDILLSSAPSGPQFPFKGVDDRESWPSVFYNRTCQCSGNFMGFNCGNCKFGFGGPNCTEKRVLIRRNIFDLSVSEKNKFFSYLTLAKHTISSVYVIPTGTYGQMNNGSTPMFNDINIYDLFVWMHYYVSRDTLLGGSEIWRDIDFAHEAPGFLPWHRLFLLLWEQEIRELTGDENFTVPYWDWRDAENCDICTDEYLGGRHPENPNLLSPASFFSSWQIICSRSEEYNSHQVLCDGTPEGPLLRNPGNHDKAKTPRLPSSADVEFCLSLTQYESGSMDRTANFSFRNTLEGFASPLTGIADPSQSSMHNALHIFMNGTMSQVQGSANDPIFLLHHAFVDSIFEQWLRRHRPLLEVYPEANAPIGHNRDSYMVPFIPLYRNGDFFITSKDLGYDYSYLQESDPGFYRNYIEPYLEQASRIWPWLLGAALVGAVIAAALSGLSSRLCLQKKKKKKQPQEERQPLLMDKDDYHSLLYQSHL
Kind of test: Tyrosinase activity inhibition assay (B16F1 cell lysate, L-tyrosine substrate, MBTH, 520 nm). It counts as biochemical. The settings on record: lysate of B16F1 cells (murine melanoma line), L-DOPA cofactor, 37° C., reading at 520 nm after 6 hours, read-out: Tyrosine hydroxylase/Dopa oxidase IC50. On the procedure: The activity of the inhibitors is measured starting from a lysate of B16F1 cells (murine melanoma line). In the presence of the L-tyrosine substrate, the tyrosinase present in these cells catalyses the hydroxylation of L-tyrosine to give L-DOPA and then the oxidation of the L-DOPA to give dopaquinone. In the presence of MBTH (3-methyl-2-benzothiazolinone hydrazone), the dopaquinone is trapped so as to form a pink complex which absorbs at 520 nm.
The B16F1 cells are cultured in DMEM medium+10% foetal calf serum+10^−9 M α-MSH for 4 days at 37° C. under 7% CO2. They are treated with trypsin, washed with PBS, counted and pelleted. The pellet is taken up at 10^7 cells/ml in lysis buffer (10 mM sodium phosphate, pH 6.8-1% Igepal) and the suspension is treated with ultrasound for 10 seconds. After centrifugation for 30 minutes at 4000 rpm, the supernatant obtained constitutes the cell lysate used as tyrosinase source in the enzymatic assay.
The assays are carried out in duplicate in 384-well plates in a total volume of 50 μl. Each well contains: […]
The plate is incubated at 37° C. and a spectrophotometric reading is carried out at 520 nm after incubating for 6 hours. To avoid any possible absorption of the products, the system uses corrected absorbance (absorbance at time 6 h—absorbance at time zero). […]

`Cc1ccc(-c2c[nH]c(=S)[nH]2)s1` [Compound 3, 4-(5-methylthiophen-2-yl)-1,3-dihydroimidazole-2-thione]: the IC50 was 300 nM.

For the compound `Cc1csc(-c2c[nH]c(=S)[nH]2)c1` [Compound 4, 4-(4-methylthiophen-2-yl)-1,3-dihydro-imidazole-2-thione], the IC50 turned out to be 100 nM.
